Laboratory results from patent publication US9062124B2, “GIP-based mixed agonists for treatment of metabolic disorders and obesity” (priority 2008, dated 2015).
“Also recorded” adds a separate entry of the source. Like-named read-outs stand apart in the source and are kept apart here. Where a SMILES comes first, the peptide text is derived from it. Bridges are numbered along the chain shown (N, C = ends). Where no end group is shown, it is not given here. [ ]: non-standard residue; d: D form. PEG 40 kDa = PEG (40 kDa) covalently attached to Cys; Aib = CC(C)(N)C(=O)O

Legend:
Format in all cases: cell-based
[1] = target: T1, GIP receptor (Homo sapiens, UniProt P48546); test: cAMP synthesis functional assay (firefly luciferase reporter in HEK293 cells), GIP receptor
T1 construct: expressed in transfected cells; host or cells: HEK293
T1 sequence (P48546 22-466): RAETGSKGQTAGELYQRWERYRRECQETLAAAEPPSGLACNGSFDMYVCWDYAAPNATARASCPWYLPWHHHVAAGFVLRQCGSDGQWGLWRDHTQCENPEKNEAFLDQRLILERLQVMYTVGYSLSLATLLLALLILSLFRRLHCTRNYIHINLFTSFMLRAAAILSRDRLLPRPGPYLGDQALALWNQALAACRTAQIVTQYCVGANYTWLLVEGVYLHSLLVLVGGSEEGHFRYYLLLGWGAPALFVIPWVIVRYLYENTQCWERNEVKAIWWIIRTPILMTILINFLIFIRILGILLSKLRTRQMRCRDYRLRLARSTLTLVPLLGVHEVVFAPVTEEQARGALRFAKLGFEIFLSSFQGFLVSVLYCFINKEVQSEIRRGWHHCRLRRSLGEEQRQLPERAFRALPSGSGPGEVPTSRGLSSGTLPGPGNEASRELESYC

[2] = test system: glucagon receptor, GLP-1 receptor or GIP receptor; test: Agonist profile across receptors assigned from the cAMP reporter assay data; conditions: assigned from the in vitro EC50 data of Tables 1-4
[3] = target: T2, glucagon receptor (Homo sapiens, UniProt P47871); test: cAMP synthesis functional assay (firefly luciferase reporter in HEK293 cells), glucagon receptor
T2 construct: expressed in transfected cells; host or cells: HEK293

[4] = target: T3, GLP-1 receptor (Homo sapiens, UniProt P43220); test: cAMP synthesis functional assay (firefly luciferase reporter in HEK293 cells), GLP-1 receptor
T3 construct: expressed in transfected cells; host or cells: HEK293

[5] = Table 1, relative to the native hormone of the indicated receptor
[6] = relative to the standard (Std.) EC50 of the same run
[7] = Glucagon Receptor EC50, nM, Table 2, linear peptides with AIB at position 16 and/or 20
[8] = GLP-1 Receptor EC50, nM, Table 2
[9] = Glucagon Receptor EC50, cAMP luciferase reporter assay as in Example 16
[10] = GLP-1 Receptor EC50, cAMP luciferase reporter assay as in Example 16

T3 sequence (P43220 24-463, species assumed): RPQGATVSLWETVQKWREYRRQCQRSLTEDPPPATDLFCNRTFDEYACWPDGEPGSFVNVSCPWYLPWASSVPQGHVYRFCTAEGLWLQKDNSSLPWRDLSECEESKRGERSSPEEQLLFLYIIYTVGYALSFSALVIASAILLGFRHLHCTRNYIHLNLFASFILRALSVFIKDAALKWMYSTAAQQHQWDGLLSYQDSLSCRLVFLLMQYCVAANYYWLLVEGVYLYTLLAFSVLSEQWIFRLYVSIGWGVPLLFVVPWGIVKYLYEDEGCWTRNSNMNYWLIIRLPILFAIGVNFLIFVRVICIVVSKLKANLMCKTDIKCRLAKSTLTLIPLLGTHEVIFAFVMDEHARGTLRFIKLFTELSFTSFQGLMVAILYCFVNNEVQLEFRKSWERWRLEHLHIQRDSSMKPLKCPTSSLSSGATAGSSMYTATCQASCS
T2 sequence (P47871 26-477): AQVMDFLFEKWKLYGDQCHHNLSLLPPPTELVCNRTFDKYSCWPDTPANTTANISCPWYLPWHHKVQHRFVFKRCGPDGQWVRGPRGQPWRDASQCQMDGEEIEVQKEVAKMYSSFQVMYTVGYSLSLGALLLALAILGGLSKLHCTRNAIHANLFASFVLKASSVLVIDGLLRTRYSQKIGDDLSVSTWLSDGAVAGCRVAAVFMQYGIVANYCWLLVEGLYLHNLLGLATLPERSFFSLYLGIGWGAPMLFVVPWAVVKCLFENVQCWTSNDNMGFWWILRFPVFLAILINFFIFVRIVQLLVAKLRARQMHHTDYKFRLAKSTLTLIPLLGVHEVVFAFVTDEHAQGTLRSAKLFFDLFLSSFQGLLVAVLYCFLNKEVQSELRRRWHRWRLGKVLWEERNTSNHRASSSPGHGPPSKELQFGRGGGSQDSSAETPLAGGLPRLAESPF

Row | Compound | receptor activity profile (glucagon / GLP-1 / GIP agonism) [2] | EC50 ([1]; GIP Receptor EC50, nM, Table 2) [nM] | GIP Receptor relative activity ([1]; Table 2) [%] | GIP Receptor relative activity [1, 6] [%] | EC50 [3, 7] [nM] | Glucagon Receptor relative activity ([3]; Table 2) [%] | Glucagon Receptor relative activity [3, 6] [%] | EC50 [4, 8] [nM] | GLP-1 Receptor relative activity ([4]; Table 2) [%] | GLP-1 Receptor relative activity [4, 6] [%] | EC50 [3, 9] [nM] | EC50 [4, 10] [nM] | further results
1 | CC[C@H](C)[C@H](NC(=O)[C@H](CO)NC(=O)[C@H](Cc1ccc(O)cc1)NC(=O)[C@H](CC(=O)O)NC(=O)[C@H](CO)NC(=O)[C@@H](NC(=O)[C@H](Cc1ccccc1)NC(=O)[C@@H](NC(=O)CNC(=O)[C@H](CCC(=O)O)NC(=O)C(C)(C)NC(=O)[C@@H](N)Cc1ccc(O)cc1)[C@@H](C)O)[C@@H](C)O)C(=O)N[C@@H](Cc1ccc(O)cc1)C(=O)N[C@@H](CC(C)C)C(=O)N[C@@H](CC(=O)O)C(=O)N[C@H]1CCC(=O)NCCCC[C@@H](C(=O)N[C@@H](CCC(=O)O)C(=O)N[C@@H](Cc2ccccc2)C(=O)N[C@H](C(=O)N[C@@H](CC(N)=O)C(=O)N[C@@H](Cc2c[nH]c3ccccc23)C(=O)N[C@@H](CC(C)C)C(=O)N[C@@H](CC(C)C)C(=O)N[C@@H](C)C(=O)NCC(=O)N[C@@H](CCCNC(=N)N)C(=O)N2CCC[C@H]2C(=O)N[C@@H](CO)C(=O)N[C@@H](CO)C(=O)NCC(=O)N[C@@H](C)C(=O)N2CCC[C@H]2C(=O)N2CCC[C@H]2C(=O)N2CCC[C@H]2C(=O)N[C@@H](CO)C(=O)N[C@@H](CS)C(N)=O)C(C)C)NC(=O)[C@H](C)NC(=O)[C@H](C)NC(=O)[C@H](CCC(N)=O)NC1=O [mt-204] (H-Y[Aib]EGTFTSDYSIYLDEQAAKEFVNWLLAGRPSSGAPPPSC-NH2; lactam 16-20; N-terminus assumed) | exemplary GLP-1/GIP co-agonist peptides | – | – | – | – | – | – | – | – | – | – | – | EC50 ([1]; GIP Receptor EC50, nM, Table 1): 0.147 nM; GIP Receptor relative activity [1, 5]: 19.73%; EC50 ([3]; Glucagon Receptor EC50, nM, Table 1): 108 nM; Glucagon Receptor relative activity [3, 5]: 0.06%; EC50 ([4]; GLP-1 Receptor EC50, nM, Table 1): 0.018 nM; GLP-1 Receptor relative activity [4, 5]: 161.11%
2 | CC[C@H](C)[C@H](NC(=O)[C@H](CO)NC(=O)[C@H](Cc1ccc(O)cc1)NC(=O)[C@H](CC(=O)O)NC(=O)[C@H](CO)NC(=O)[C@@H](NC(=O)[C@H](Cc1ccccc1)NC(=O)[C@@H](NC(=O)CNC(=O)[C@H](CCC(N)=O)NC(=O)C(C)(C)NC(=O)[C@@H](N)Cc1ccc(O)cc1)[C@@H](C)O)[C@@H](C)O)C(=O)N[C@@H](Cc1ccc(O)cc1)C(=O)N[C@@H](CC(C)C)C(=O)N[C@@H](CC(=O)O)C(=O)N[C@@H](CCCCN)C(=O)N[C@@H](CCC(N)=O)C(=O)N[C@@H](C)C(=O)N[C@@H](C)C(=O)NC(C)(C)C(=O)N[C@@H](CCC(=O)O)C(=O)N[C@@H](Cc1ccccc1)C(=O)N[C@H](C(=O)N[C@@H](CC(N)=O)C(=O)N[C@@H](Cc1c[nH]c2ccccc12)C(=O)N[C@@H](CC(C)C)C(=O)N[C@@H](CC(C)C)C(=O)N[C@@H](C)C(=O)NCC(=O)NCC(=O)N1CCC[C@H]1C(=O)N[C@@H](CO)C(=O)N[C@@H](CO)C(=O)NCC(=O)N[C@@H](C)C(=O)N1CCC[C@H]1C(=O)N1CCC[C@H]1C(=O)N1CCC[C@H]1C(=O)N[C@@H](CO)C(=O)N[C@@H](CS)C(N)=O)C(C)C [mt-252] | exhibited activities of glucagon/GLP-1/GIP triagonists; also recorded: exhibited activity at the GIP, GLP-1, and glucagon receptors | 0.013 | 146.15 | 146.15 | 0.319 | 13.17 | 13.17 | 0.018 | 116.67 | 116.67 | – | – | –
3 | CC[C@H](C)[C@H](NC(=O)[C@H](CO)NC(=O)[C@H](Cc1ccc(O)cc1)NC(=O)[C@H](CC(=O)O)NC(=O)[C@H](CO)NC(=O)[C@@H](NC(=O)[C@H](Cc1ccccc1)NC(=O)[C@@H](NC(=O)CNC(=O)[C@H](CCC(N)=O)NC(=O)C(C)(C)NC(=O)[C@@H](N)Cc1ccc(O)cc1)[C@@H](C)O)[C@@H](C)O)C(=O)N[C@@H](Cc1ccc(O)cc1)C(=O)N[C@@H](CC(C)C)C(=O)N[C@@H](CC(=O)O)C(=O)NC(C)(C)C(=O)N[C@@H](CCC(N)=O)C(=O)N[C@@H](C)C(=O)N[C@@H](C)C(=O)N[C@@H](CCC(N)=O)C(=O)N[C@@H](CCC(=O)O)C(=O)N[C@@H](Cc1ccccc1)C(=O)N[C@H](C(=O)N[C@@H](CC(N)=O)C(=O)N[C@@H](Cc1c[nH]c2ccccc12)C(=O)N[C@@H](CC(C)C)C(=O)N[C@@H](CC(C)C)C(=O)N[C@@H](C)C(=O)NCC(=O)NCC(=O)N1CCC[C@H]1C(=O)N[C@@H](CO)C(=O)N[C@@H](CO)C(=O)NCC(=O)N[C@@H](C)C(=O)N1CCC[C@H]1C(=O)N1CCC[C@H]1C(=O)N1CCC[C@H]1C(=O)N[C@@H](CO)C(=O)N[C@@H](CS)C(N)=O)C(C)C [mt-242] (H-Y[Aib]QGTFTSDYSIYLD[Aib]QAAQEFVNWLLAGGPSSGAPPPSC-NH2; N-terminus assumed) | exhibited activities of glucagon/GLP-1/GIP triagonists | 0.078 | 14.10 | – | 1.11 | 9.58 | – | 0.102 | 29.41 | – | – | – | –
4 | mt-249: linear peptide lacking a lactam bridge, AIB at position 16 and/or 20 (Y[Aib]QGTFTSDYSIYLD[Aib]QAAQEFVNWLLAGGPSSGAPPPSC(PEG 40 kDa)-NH2) | exhibited activities of glucagon/GLP-1/GIP triagonists | – | 0.63 | – | – | 0.59 | – | – | 2.56 | – | – | – | EC50 ([1]; read-out: GIP Receptor EC50, Table 2): 2.71 nM; EC50 ([3]; read-out: Glucagon Receptor EC50, Table 2, linear peptides with AIB at position 16 and/or 20): 10.3 nM; EC50 ([4]; read-out: GLP-1 Receptor EC50, Table 2): 0.391 nM
5 | CCCCCCCCCCCCCCCCCC(=O)NCCCC[C@H](NC(=O)[C@@H](NC(=O)[C@H](Cc1ccccc1)NC(=O)[C@H](CCC(=O)O)NC(=O)C(C)(C)NC(=O)[C@H](C)NC(=O)[C@H](C)NC(=O)[C@H](CCC(N)=O)NC(=O)[C@H](CCCCN)NC(=O)[C@H](CC(=O)O)NC(=O)[C@H](CC(C)C)NC(=O)[C@H](Cc1ccc(O)cc1)NC(=O)[C@@H](NC(=O)[C@H](CO)NC(=O)[C@H](Cc1ccc(O)cc1)NC(=O)[C@H](CC(=O)O)NC(=O)[C@H](CO)NC(=O)[C@@H](NC(=O)[C@H](Cc1ccccc1)NC(=O)[C@@H](NC(=O)CNC(=O)[C@H](CCC(=O)O)NC(=O)C(C)(C)NC(=O)[C@@H](N)Cc1ccc(O)cc1)[C@@H](C)O)[C@@H](C)O)[C@@H](C)CC)C(C)C)C(=O)N[C@@H](Cc1c[nH]c2ccccc12)C(=O)N[C@@H](CC(C)C)C(=O)N[C@@H](CC(C)C)C(=O)N[C@@H](C)C(=O)NCC(=O)NCC(=O)N1CCC[C@H]1C(=O)N[C@@H](CO)C(=O)N[C@@H](CO)C(=O)NCC(=O)N[C@@H](C)C(=O)N1CCC[C@H]1C(=O)N1CCC[C@H]1C(=O)N1CCC[C@H]1C(=O)N[C@@H](CO)C(N)=O [mt-267] | exhibited activity at the GIP, GLP-1, and glucagon receptors | – | – | 0.65 | – | – | 0.07 | – | – | 0.84 | 62 | 2.09 | EC50 ([1]; GIP Receptor EC50, cAMP luciferase reporter assay as in Example 16): 1.31 nM
6 | CC[C@H](C)[C@H](NC(=O)[C@H](CO)NC(=O)[C@H](Cc1ccc(O)cc1)NC(=O)[C@H](CC(=O)O)NC(=O)[C@H](CO)NC(=O)[C@@H](NC(=O)[C@H](Cc1ccccc1)NC(=O)[C@@H](NC(=O)CNC(=O)[C@H](CCC(N)=O)NC(=O)C(C)(C)NC(=O)[C@@H](N)Cc1ccc(O)cc1)[C@@H](C)O)[C@@H](C)O)C(=O)N[C@@H](Cc1ccc(O)cc1)C(=O)N[C@@H](CC(C)C)C(=O)N[C@@H](CC(=O)O)C(=O)N[C@@H](CCCCN)C(=O)N[C@@H](CCC(N)=O)C(=O)N[C@@H](C)C(=O)N[C@@H](C)C(=O)NC(C)(C)C(=O)N[C@@H](CCC(=O)O)C(=O)N[C@@H](Cc1ccccc1)C(=O)N[C@H](C(=O)N[C@@H](CC(N)=O)C(=O)N[C@@H](Cc1c[nH]c2ccccc12)C(=O)N[C@@H](CC(C)C)C(=O)N[C@@H](CC(C)C)C(=O)N[C@@H](C)C(=O)NCC(=O)NCC(=O)N1CCC[C@H]1C(=O)N[C@@H](CO)C(=O)N[C@@H](CO)C(=O)NCC(=O)N[C@@H](C)C(=O)N1CCC[C@H]1C(=O)N1CCC[C@H]1C(=O)N1CCC[C@H]1C(=O)N[C@@H](CO)C(=O)N[C@@H](CCCCN)C(N)=O)C(C)C [mt-280] (H-Y[Aib]QGTFTSDYSIYLDKQAA[Aib]EFVNWLLAGGPSSGAPPPSK-NH2; N-terminus assumed) | exhibited activity at the GIP, GLP-1, and glucagon receptors | – | – | 159.06 | – | – | 74.74 | – | – | 153.17 | 0.0677 | 0.0126 | –
